Target: T1, p53 Y220C (Homo sapiens, UniProt P04637, Y220C)
T1 construct: The recombinant protein was a truncation mutant containing only amino acids 94-312 of p53; made in house; host or cells: E. coli
Test: In vitro DNA binding activity assay (HTRF / TR-FRET): stabilization of p53 Y220C and increase of its DNA binding activity
Assay type: biochemical
Conditions: recombinant His-tagged p53 Y220C DNA binding domain (aa 94-312), biotin-labeled consensus DNA, incubated at 27° C. or 29° C. for 60 min
How it was run: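 His-tagged p53 Y220C, E. coli-expressed, binding biotin-labeled consensus DNA measured by HTRF (anti-His-APC, streptavidin-europium). Compounds from 4.5 mM DMSO stocks, 3-fold serial dilutions; incubations at room temperature 15 min, then 20 min. SC150 = concentration raising DNA binding by 50%.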

T1 sequence (P04637 94-312, change not shown): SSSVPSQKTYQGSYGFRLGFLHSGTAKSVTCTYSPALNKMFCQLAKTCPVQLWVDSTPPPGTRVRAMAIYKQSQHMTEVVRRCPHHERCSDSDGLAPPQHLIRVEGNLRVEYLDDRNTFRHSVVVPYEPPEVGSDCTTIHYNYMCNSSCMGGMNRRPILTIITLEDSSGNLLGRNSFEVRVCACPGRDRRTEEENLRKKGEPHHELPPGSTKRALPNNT

SC150 (concentration of the compound required to increase the DNA binding activity by 50%), + (+ = 0 μM ≤ SC150 < 0.05 μM):
COC[C@H](O)CN1CCC(Nc2cccc3c2cc(C#CCNc2ccc(S(C)(=O)=O)cc2OC)n3CC(F)(F)F)CC1 [Compound 611A, (2R)-1-{4-[(2-{3-[(4-methanesulfonyl-2-methoxyphenyl)amino]prop-1-yn-1-yl}-1-(2,2,2-trifluoroethyl)-1H-indol-4-yl)amino]piperidin-1-yl}-3-methoxypropan-2-ol]
COC[C@@H](O)CN1CCC(Nc2cccc3c2cc(C#CCNc2ccc(S(C)(=O)=O)cc2OC)n3CC(F)(F)F)CC1 [Compound 612A, (2S)-1-{4-[(2-{3-[(4-methanesulfonyl-2-methoxyphenyl)amino]prop-1-yn-1-yl}-1-(2,2,2-trifluoroethyl)-1H-indol-4-yl)amino]piperidin-1-yl}-3-methoxypropan-2-ol]
COc1cc(C(N)=O)ccc1NCC#Cc1cc2c(N[C@H]3CC[C@@H](N(C)C)CC3)cccc2n1CC(F)(F)F [Compound 613A, 3-methoxy-4-{[3-(4-{[(1S,4S)-4-(dimethylamino)cyclohexyl]amino}-1-(2,2,2-trifluoroethyl)-1H-indol-2-yl)prop-2-yn-1-yl]amino}benzamide]
CNC(=O)c1ccc(NCC#Cc2cc3c(NC4CCN(CCOC)CC4)cccc3n2CC(F)(F)F)c(OC)c1 [Compound 616A, 3-methoxy-4-{[3-(4-{[1-(2-methoxyethyl)piperidin-4-yl]amino}-1-(2,2,2-trifluoroethyl)-1H-indol-2-yl)prop-2-yn-1-yl]amino}-N-methylbenzamide]
CNS(=O)(=O)c1ccc(NCC#Cc2cc3c(NC4CCN(CCOC)CC4)cccc3n2CC(F)(F)F)c(OC)c1 [Compound 617A, 3-methoxy-4-{[3-(4-{[1-(2-methoxyethyl)piperidin-4-yl]amino}-1-(2,2,2-trifluoroethyl)-1H-indol-2-yl)prop-2-yn-1-yl]amino}-N-methylbenzene-1-sulfonamide]
COc1cc(S(N)(=O)=O)ccc1NCC#Cc1cc2c(NC3CCN(CCOC(C)=O)CC3)cccc2n1CC(F)(F)F [Compound 618A]
COCC(CN1CCC(Nc2cccc3c2cc(C#CCNc2ccc(S(N)(=O)=O)cc2OC)n3CC(F)(F)F)CC1)OC(C)=O (stereo not shown) [Compound 619A, 1-methoxy-3-{4-[(2-{3-[(2-methoxy-4-sulfamoylphenyl)amino]prop-1-yn-1-yl}-1-(2,2,2-trifluoroethyl)-1H-indol-4-yl)amino]piperidin-1-yl}propan-2-yl acetate]
COCC(O)CN1CCC(Nc2cccc3c2cc(C#CCNc2ccc(C(N)=O)cc2OC)n3CC(F)(F)F)CC1 (stereo not shown) [Compound 620A, 4-{[3-(4-{[1-(2-hydroxy-3-methoxypropyl)piperidin-4-yl]amino}-1-(2,2,2-trifluoroethyl)-1H-indol-2-yl)prop-2-yn-1-yl]amino}-3-methoxybenzamide]
COCC(O)CN1CCC(Nc2cccc3c2cc(C#CCNc2ccc(S(C)(=O)=O)cc2O)n3CC(F)(F)F)CC1 (stereo not shown) [Compound 621A, 2-{[3-(4-{[1-(2-hydroxy-3-methoxypropyl)piperidin-4-yl]amino}-1-(2,2,2-trifluoroethyl)-1H-indol-2-yl)prop-2-yn-1-yl]amino}-5-methanesulfonylphenol]
COCC(O)CN1CCC(Nc2cccc3c2cc(C#CCNc2ccc(S(=O)(=O)N(C)C)cc2OC)n3CC(F)(F)F)CC1 (stereo not shown) [Compound 622A]
COc1cc(S(N)(=O)=O)ccc1NCC#Cc1cc2c(NC3CCN(C[C@H](CO)OC)CC3)cccc2n1CC(F)(F)F [Compound 623A, 4-({3-[4-({1-[(2R)-3-hydroxy-2-methoxypropyl]piperidin-4-yl}amino)-1-(2,2,2-trifluoroethyl)-1H-indol-2-yl]prop-2-yn-1-yl}amino)-3-methoxybenzene-1-sulfonamide]
CCC(=O)N(C)S(=O)(=O)c1ccc(NCC#Cc2cc3c(NC4CCN(CC(O)COC)CC4)cccc3n2CC(F)(F)F)c(OC)c1 (stereo not shown) [Compound 624A, N-(4-{[3-(4-{[1-(2-hydroxy-3-methoxypropyl)piperidin-4-yl]amino}-1-(2,2,2-trifluoroethyl)-1H-indol-2-yl)prop-2-yn-1-yl]amino}-3-methoxybenzenesulfonyl)-N-methylpropanamide]
COCC(O)CN1CCC(Nc2cccc3c2cc(C#CCNc2ccc(S(C)(=O)=O)cc2OCCF)n3CC(F)(F)F)CC1 (stereo not shown) [Compound 625A, 1-(4-{[2-(3-{[2-(2-fluoroethoxy)-4-methanesulfonylphenyl]amino}prop-1-yn-1-yl)-1-(2,2,2-trifluoroethyl)-1H-indol-4-yl]amino}piperidin-1-yl)-3-methoxypropan-2-ol]
CCC(=O)NS(=O)(=O)c1ccc(NCC#Cc2cc3c(NC4CCN(CC(COC)OC(=O)CC)CC4)cccc3n2CC(F)(F)F)c(OC)c1 (stereo not shown) [Compound 627A, 1-methoxy-3-(4-{[2-(3-{[2-methoxy-4-(propanamidosulfonyl)phenyl]amino}prop-1-yn-1-yl)-1-(2,2,2-trifluoroethyl)-1H-indol-4-yl]amino}piperidin-1-yl)propan-2-yl propanoate]
CCC(=O)NS(=O)(=O)c1ccc(NCC#Cc2cc3c(NC4CCN(CC(COC(=O)CC)OC(=O)CC)CC4)cccc3n2CC(F)(F)F)c(OC)c1 (stereo not shown) [Compound 628A, 1-(4-{[2-(3-{[2-methoxy-4-(propanamidosulfonyl)phenyl]amino}prop-1-yn-1-yl)-1-(2,2,2-trifluoroethyl)-1H-indol-4-yl]amino}piperidin-1-yl)-3-(propanoyloxy)propan-2-yl propanoate]
COc1cc(S(C)(=O)=O)ccc1NCC#Cc1cc2c(NC3CCN(C[C@H](CO)OC)CC3)cccc2n1CC(F)(F)F [Compound 629A, (2R)-3-{4-[(2-{3-[(4-methanesulfonyl-2-methoxyphenyl)amino]prop-1-yn-1-yl}-1-(2,2,2-trifluoroethyl)-1H-indol-4-yl)amino]piperidin-1-yl}-2-methoxypropan-1-ol]
COc1cc(S(C)(=O)=O)ccc1NCC#Cc1cc2c(NC3CCN(C[C@@H](CO)OC)CC3)cccc2n1CC(F)(F)F [Compound 630A, (2S)-3-{4-[(2-{3-[(4-methanesulfonyl-2-methoxyphenyl)amino]prop-1-yn-1-yl}-1-(2,2,2-trifluoroethyl)-1H-indol-4-yl)amino]piperidin-1-yl}-2-methoxypropan-1-ol]
CCOc1cc(S(C)(=O)=O)ccc1NCC#Cc1cc2c(NC3CCN(CC(O)COC)CC3)cccc2n1CC(F)(F)F (stereo not shown) [Compound 631A, 1-{4-[(2-{3-[(2-ethoxy-4-methanesulfonylphenyl)amino]prop-1-yn-1-yl}-1-(2,2,2-trifluoroethyl)-1H-indol-4-yl)amino]piperidin-1-yl}-3-methoxypropan-2-ol]
COc1cc(S(N)(=O)=O)ccc1NCC#Cc1cc2c(NC3CCN(C[C@@H](CO)OC)CC3)cccc2n1CC(F)(F)F [Compound 632A, 4-({3-[4-({l-[(2S)-3-hydroxy-2-methoxypropyl]piperidin-4-yl}amino)-1-(2,2,2-trifluoroethyl)-1H-indol-2-yl]prop-2-yn-1-yl}amino)-3-methoxybenzene-1-sulfonamide]
COCC(O)CN1CCC(Nc2cccc3c2cc(C#CCNc2ccc(C(=O)NC(C)C)cc2OC)n3CC(F)(F)F)CC1 (stereo not shown) [Compound 633A, 4-{[3-(4-{[1-(2-hydroxy-3-methoxypropyl)piperidin-4-yl]amino}-1-(2,2,2-trifluoroethyl)-1H-indol-2-yl)prop-2-yn-1-yl]amino}-3-methoxy-N-(propan-2-yl)benzamide]
COCC(O)CN1CCC(Nc2cccc3c2cc(C#CCNc2ccc(S(N)(=O)=O)cc2O)n3CC(F)(F)F)CC1 (stereo not shown) [Compound 634A, 3-hydroxy-4-{[3-(4-{[1-(2-hydroxy-3-methoxypropyl)piperidin-4-yl]amino}-1-(2,2,2-trifluoroethyl)-1H-indol-2-yl)prop-2-yn-1-yl]amino}benzene-1-sulfonamide]
COC[C@@H](CN1CCC(Nc2cccc3c2cc(C#CCNc2ccc(S(C)(=O)=O)cc2OC)n3CC(F)(F)F)CC1)OC(=O)C(C)C [Compound 635A, (2R)-1-{4-[(2-{3-[(4-methanesulfonyl-2-methoxyphenyl)amino]prop-1-yn-1-yl}-1-(2,2,2-trifluoroethyl)-1H-indol-4-yl)amino]piperidin-1-yl}-3-methoxypropan-2-yl 2-methylpropanoate]

From patent publication US12428406B2 (PMV Pharmaceuticals, Inc., priority 2019, dated 2025)
